Results from paper PMC10154249, “Unique progerin C-terminal peptide ameliorates Hutchinson–Gilford progeria syndrome phenotype by rescuing BUBR1” (Nature Aging, 2023).

Columns and labels:
BUBR1 = target: T1, BUBR1 (Homo sapiens, UniProt O60566); experiment: Pulldown assay of UPCP and BUBR1; type: binding; settings: pulldown (and MST); His-UPCP 10 μg with Flag beads-BUBR1, 16 h at 4 °C
T1 construct: made in house
Experimental: Cells were harvested and lysed in buffer A mixed with protease inhibitor cocktail tablet (Roche) after 48 h. […] The beads were washed three times using 1× Tris saline buffer (50 mM Tris-HCl (pH 7.4) and 150 mM NaCl)) for 8 min each. The bound proteins BUBR1 or PTBP1 were eluted with 3×Flag peptide (ApexBio) for 2 h at 4 °C. Finally, BUBR1 or PTBP1 was concentrated and recovered by using the Centrifugal Filters (Amicon Ultra).
A detailed description of the pulldown assay was described previously. His-UPCP fusion protein was expression in bacteria (BL21) and induced with 0.5 mM isopropyl-β-D-thio-galactoside for 16 h at 16 °C. The bacteria were harvested and lysed in TEN buffer (20 mM Tris-HCl (pH7.4), 0.1mM EDTA, 100 mM NaCl). […] His-UPCP was eluted with Imidazole eluent (50 mM NaH2PO4, 300 mM NaCl and 50 mM Imidazole) for 2 h at 4 °C and concentrated and recovered using centrifugal filters (Amicon Ultra). For the pulldown of His-UPCP and Flag-BUBR1 or Flag-PTBP1, 10 μg His-UPCP was incubated with Flag beads (Biotool, catalog no. B23102), Flag beads-BUBR1 or Flag beads-PTBP1 respectively for 16 h at 4 °C. The beads were washed three times with PBS and added to 1× loading buffer for western blot.

HGADFN003 cells = experiment: SA-β-gal staining of HGADFN003 cells; type: cell-based, human; settings: for Relative percentage of SA-β-gal positive cells: Fig. 5a, Mock 32, 39, 31, P=0.0059; for SA-β-gal positive cells: HGADFN003, Extended Data Fig. 10c
Experimental: SA-β-gal staining was performed as previously described. Cells were fixed in 0.5% glutaraldehyde for 15 min at room temperature, washed three times with PBS (pH 6.0) containing 1 mM MgCl2 and exposed overnight 37 °C to containing 1 mg ml^–1 5-bromo-4-chloro-3-indolyl-β-D-galactopyranoside (MCE, catalog no. HY-15934), 0.12 mM potassium ferrocyanide (Sigma, catalog no. P3289), 0.12 mM potassium ferricyanide (Sigma, catalog no. P8131) and 1 mM MgCl2 PBS buffer (pH 6.0). Cells were washed three times with H2O and observed under a microscope (OLYMPUS CKX53). SA-β-gal positive cells were quantified by investigators who were blinded to the identity of the analyzed cell.

HGADFN167 cells = experiment: Ki67 immunofluorescence of HGADFN167 cells; type: cell-based, human
Experimental: (§1) Immunofluorescence was performed as described previously. Cells were plated on cover slips in 12-well plates, left overnight before the treatment. Cells were fixed in 1% formaldehyde in culture medium for 10 min at 37 °C and permeabilized with 0.2% Triton X-100 in PBS for 10 min at room temperature. Cells were washed twice in PBS and blocked for 1 h with 5% BSA in PBS and then incubated with primary antibodies at 4 °C overnight, washed three times in PBS and incubated with secondary antibodies for 1 h at room temperature. Cell nuclei were counterstained with a 500 nM concentration of 4,6-diamidino-2-phenylindole (DAPI) (Sigma). Images were acquired by a fluorescence microscope (OLYMPUS FV-1000, Carl Zeiss LSM880 or Leica DMi8) and analyzed with software NIS-Elements AR v.5.0.1 (Nikon), FLUOVIEW v.4.2b (OLYMPUS), ZEN v.2.3 SP1 (Carl Zeiss) and Leica Application Suite X v.3.6.0.24 (Leica). Cells were quantified by investigators who were blinded to the identity of the analyzed cell.

IMR90 cells = experiment: Ki67 immunofluorescence of IMR90 cells; type: cell-based, human
Experimental: as §1

senescent IMR90 cells = experiment: Ki67 immunofluorescence of DNA damage-induced senescent IMR90 cells; type: cell-based, human; settings: UPCP
Experimental: Fibroblasts from patients with HGPS were obtained from The Progeria Research Foundation Cell and Tissue Bank (http://www.progeriaresearch.org). The following fibroblasts were used: HGADFN003, HGADFN167, HGMDFN090 and HGFDFN168. Human dermal fibroblasts (GM00038 and AG09602) were obtained from Coriell Cell Repository (https://catalog.coriell.org). These cells were characterized by DNA fingerprinting and isozyme detection and were tested by a MycoBlue Mycoplasma Detector (Vazyme Biotech) to exclude mycoplasma contamination before the experiments. […] HGADFN003, HGADFN167, HGMDFN090, HGFDFN168, GM00038 and AG09602 were cultured in DMEM medium with 15% (v/v) fetal bovine serum (VivaCell). All cell lines were grown at 37 °C with 5% CO2 and IMR90, CRL-1474, HGADFN003, HGADFN167, HGMDFN090, HGFDFN168, GM00038 and AG09602 were cultured with 5% O2. For bleomycin-induced senescence, IMR90 cells were incubated with the culture medium containing 20 μg ml^–1 Bleomycin (Selleck, catalog no. S1214) for 2 h and analyzed 10 days later, or as otherwise indicated. For doxorubicin-induced senescence, IMR90 cells were treated twice with 100 nM Doxorubicin (Selleck, catalog no. S1208) with a 2 day interval and analyzed 10 days later, or as otherwise indicated. For ionizing radiation (IR)-induced senescence, IMR90 cells were exposed to 10 Gy Gamma rays, and analyzed 10 days later, or as otherwise indicated, the control IMR90 cells were mock irradiated. For etoposide-induced senescence, IMR90 cells incubated with the culture medium containing 10 μM Etoposide (Sigma, catalog no. E1383) for 48 h and analyzed 10 days later, or as otherwise indicated.
as §1

T1 sequence (O60566 whole entry): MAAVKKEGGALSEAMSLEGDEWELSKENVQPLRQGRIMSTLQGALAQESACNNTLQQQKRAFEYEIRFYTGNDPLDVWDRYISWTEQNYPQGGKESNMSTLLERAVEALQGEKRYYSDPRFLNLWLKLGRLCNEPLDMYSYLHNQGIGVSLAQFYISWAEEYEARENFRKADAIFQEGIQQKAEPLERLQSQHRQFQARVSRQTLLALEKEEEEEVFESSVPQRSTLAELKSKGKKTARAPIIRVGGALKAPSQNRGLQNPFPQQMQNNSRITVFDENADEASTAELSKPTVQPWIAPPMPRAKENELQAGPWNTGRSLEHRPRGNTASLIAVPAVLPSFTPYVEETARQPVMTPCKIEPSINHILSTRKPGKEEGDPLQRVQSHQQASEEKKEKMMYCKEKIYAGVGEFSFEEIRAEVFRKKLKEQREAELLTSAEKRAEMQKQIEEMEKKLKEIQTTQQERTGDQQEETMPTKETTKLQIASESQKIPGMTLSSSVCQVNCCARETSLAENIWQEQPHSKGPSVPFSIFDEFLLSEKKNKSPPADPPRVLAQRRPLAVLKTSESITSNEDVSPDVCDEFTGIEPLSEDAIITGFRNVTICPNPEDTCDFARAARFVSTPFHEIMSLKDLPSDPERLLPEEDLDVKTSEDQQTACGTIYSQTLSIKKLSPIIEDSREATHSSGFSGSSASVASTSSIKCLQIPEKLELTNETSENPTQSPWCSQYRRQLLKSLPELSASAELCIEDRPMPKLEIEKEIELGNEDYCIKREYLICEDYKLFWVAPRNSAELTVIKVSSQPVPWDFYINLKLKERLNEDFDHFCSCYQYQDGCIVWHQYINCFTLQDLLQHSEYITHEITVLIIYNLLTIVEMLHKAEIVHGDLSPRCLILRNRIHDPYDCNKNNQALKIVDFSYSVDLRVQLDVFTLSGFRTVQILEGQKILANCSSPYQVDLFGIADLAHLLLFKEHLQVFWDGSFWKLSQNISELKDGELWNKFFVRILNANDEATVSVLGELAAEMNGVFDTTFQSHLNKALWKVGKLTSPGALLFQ

Substance: H-YGRKKRRQRRRYNLRSRTVLCGTCGQPADKASASGSGAQSPQNCSIM-OH (cysteines drawn unpaired) [UPCP, unique progerin C-terminal peptide]
- direct combination with BUBR1 (BUBR1): could combine with BUBR1 directly in vitro
- Relative percentage of SA-β-gal positive cells (HGADFN003 cells; HGADFN003, replicate 1): 15%
- Relative percentage of SA-β-gal positive cells (HGADFN003 cells; HGADFN003, replicate 2): 10%
- Relative percentage of SA-β-gal positive cells (HGADFN003 cells; HGADFN003, replicate 3): 19%
- SA-β-gal activity (FTI-277/UPCP comparison, words) (HGADFN003 cells; HGADFN003): decreased the activity of SA-β-gal
- SA-β-gal positive cells (HGADFN003 cells; replicate 1): 12%
- SA-β-gal positive cells (HGADFN003 cells; replicate 2): 18%
- SA-β-gal positive cells (HGADFN003 cells; replicate 3): 25%
- SA-β-gal activity (HGADFN003 cells; HGPS cells): reduced activity of SA-β-gal
- efficacy on HGPS cellular senescence relative to FTI-277 (HGADFN003 cells; HGPS cells): comparable with farnesyltransferase inhibitors (FTI-277)
- Ki67 positive cells (HGADFN167 cells; HGADFN167, replicate 1): 53%
- Ki67 positive cells (HGADFN167 cells; HGADFN167, replicate 2): 45%
- Ki67 positive cells (HGADFN167 cells; HGADFN167, replicate 3): 56%
- Ki67 positive cells (IMR90 cells; IMR90, replicate 1): 73%
- Ki67 positive cells (IMR90 cells; IMR90, replicate 2): 84%
- Ki67 positive cells (IMR90 cells; IMR90, replicate 3): 87%
- Ki67 positive cells (senescent IMR90 cells; BLM (bleomycin 20 μg/mL 2 h), replicate 1): 14.5%
- Ki67 positive cells (senescent IMR90 cells; BLM (bleomycin 20 μg/mL 2 h), replicate 2): 18.5%
- Ki67 positive cells (senescent IMR90 cells; BLM (bleomycin 20 μg/mL 2 h), replicate 3): 21.5%
- Ki67 positive cells (senescent IMR90 cells; Dox (doxorubicin 100 nM twice), replicate 1): 14%
- Ki67 positive cells (senescent IMR90 cells; Dox (doxorubicin 100 nM twice), replicate 2): 22%
- Ki67 positive cells (senescent IMR90 cells; Dox (doxorubicin 100 nM twice), replicate 3): 19%
- Ki67 positive cells (senescent IMR90 cells; Eto (etoposide 10 μM 48 h), replicate 1): 18.5%
- Ki67 positive cells (senescent IMR90 cells; Eto (etoposide 10 μM 48 h), replicate 2): 20%
- Ki67 positive cells (senescent IMR90 cells; Eto (etoposide 10 μM 48 h), replicate 3): 14.5%
- Ki67 positive cells (senescent IMR90 cells; IR (10 Gy), replicate 1): 19%
- Ki67 positive cells (senescent IMR90 cells; IR (10 Gy), replicate 2): 15.5%
- Ki67 positive cells (senescent IMR90 cells; IR (10 Gy), replicate 3): 17%
